Assay results from US10316017B2, “COT modulators and methods of use thereof” (Gilead Sciences, Inc., priority 2015, dated 2019).
Read-outs that look alike come from different tables or passages of the source.

How the values were obtained:
[1] = tested on: TNFα production in LPS-stimulated human monocytes; experiment: Cot Monocyte TNFα Cell Based Assay; settings: TNFα in LPS-stimulated human monocytes, read-out: EC50 TNF
How it was run: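 Cells at 5,000/well were pretreated with compound for 1 h at 37 °C (0.5% DMSO final), then stimulated with 50 pg/ml LPS for 4 h at 37 °C. Supernatant TNFα was measured by two-antibody TR-FRET after overnight room-temperature incubation; values are percent of control between unstimulated and stimulated wells.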

[2] = molecular target: T1, human Cot catalytic domain (30-397 amino acids) (Homo sapiens, UniProt P41279); experiment: High Throughput Cot Biochemical Assay (KinEASE TR-FRET); settings: Cot KinEASE TR-FRET (HTRF) biochemical assay, 400 μM ATP; read-out: IC50 HTRF
T1 construct: Purified recombinant human Cot catalytic domain (30-397 amino acids) was purchased from Cama Biosciences; purchased Cama Biosciences (so in the source)
How it was run: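 Reaction of 5 nM recombinant human Cot catalytic domain (aa 30-397) with 1 μM STK3 peptide (XL665-labeled) and 400 μM ATP in 10 mM MOPS pH 7.0, 10 mM MgOAc, 1 mM DTT, 0.5 mg/mL BSA, 0.1% DMSO. Phosphopeptide detected by TR-FRET with europium anti-phospho antibody.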

T1 sequence (P41279 30-397): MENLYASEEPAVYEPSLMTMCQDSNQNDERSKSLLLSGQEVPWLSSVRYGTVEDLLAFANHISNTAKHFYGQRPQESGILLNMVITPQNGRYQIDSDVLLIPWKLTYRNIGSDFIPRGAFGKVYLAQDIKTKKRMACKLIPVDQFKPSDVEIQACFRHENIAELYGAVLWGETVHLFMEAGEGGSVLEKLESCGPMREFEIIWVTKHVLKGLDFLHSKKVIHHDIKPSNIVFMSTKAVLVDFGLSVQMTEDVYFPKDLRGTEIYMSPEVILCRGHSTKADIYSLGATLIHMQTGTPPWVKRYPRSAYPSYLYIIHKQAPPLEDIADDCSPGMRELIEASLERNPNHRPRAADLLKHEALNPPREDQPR

EC50 ([1]; Homo sapiens, Monocyte) [nM]	IC50 [2] [nM]	EC50 [1] [nM]	Structure (SMILES)
436	5	–	CC(=O)N(C)c1cccc([C@H](Nc2cc(Br)c3ncc(C#N)c(NCC(C)(C)C)c3c2)c2cn(C3CC3)nn2)c1 [Example 78, (S)-N-(3-(((8-bromo-3-cyano-4-(neopentylamino)quinolin-6-yl)amino) (1-cyclopropyl-1H-1,2,3-triazol-4-yl)methyl)phenyl)-N-methylacetamide]
278	8	–	CC(=O)Nc1cccc([C@H](Nc2cc(Br)c3ncc(C#N)c(NCC(C)(C)C)c3c2)c2cn(C3CC3)nn2)c1 [Example 79, (S)-N-(3-(((8-bromo-3-cyano-4-(neopentylamino)quinolin-6-yl)amino) (1-cyclopropyl-1H-1,2,3-triazol-4-yl)methyl)phenyl)acetamide]
395	31	–	[2H][C@](Nc1cc(Br)c2ncc(C#N)c(NCC(C)(C)C)c2c1)(c1ccc(Cl)cc1)c1cn(C2CC2)nn1 [Example 80, (S)-8-bromo-6-(((4-chlorophenyl)(1-cyclopropyl-1H-1,2,3-triazol-4-yl)methyl-d)amino)-4-(neopentylamino) quinoline-3-carbonitrile]
316	20	–	[2H][C@](Nc1cc(-c2cncnc2)c2ncc(C#N)c(N[C@H](CC)c3ccccc3)c2c1)(c1ccc(F)cc1)c1cn(C2CC2)nn1 [Example 81, 6-(((S)-(1-cyclopropyl-1H-1,2,3-triazol-4-yl)(4-fluorophenyl)methyl-d)amino)-4-(((R)-1-phenylpropyl)amino)-8-(pyrimidin-5-yl)quinoline-3-carboitrile]
183	1	–	CC(C)(C)CNc1c(C#N)cnc2c(C#N)cc(N[C@@H](c3cccc(-c4ncco4)c3)c3cn(C4CC4)nn3)cc12 [Example 82, (S)-6-(((1-cyclopropyl-1H-1,2,3-triazol-4-yl)(3-(oxazol-2-yl)phenyl)methyl)amino)-4-(neopentylamino) quinoline-3,8-dicarbonitrile]
165	2	–	CC(C)(C)CNc1c(C#N)cnc2c(Br)cc(N[C@@H](c3cccc(-c4ncco4)c3)c3cn(C4CC4)nn3)cc12 [Example 83, (S)-8-bromo-6-(((1-cyclopropyl-1H-1,2,3-triazol-4-yl) (3-(oxazol-2-yl)phenyl)methyl)amino)-4-(neopentylamino) quinoline-3-carbonitrile]
47	2	–	[2H][C@](Nc1cc(C#N)c2ncc(C#N)c(NCC(C)(C)C)c2c1)(c1ccccc1)c1cn(C2CC2)nn1 [Example 84, (S)-6-(((1-cyclopropyl-1H-1,2,3-triazol-4-yl) (phenyl)methyl-d)amino)-4-(neopentylamino) quinoline-3,8-dicarbonitrile]
862	42	–	[2H][C@@](Nc1cc(C(C)=O)c2ncc(C#N)c(Nc3cccc(Cl)c3)c2c1)(c1cn(C2CC2)nn1)c1ccccc1Cl [Example 85, (S)-8-acetyl-6-(((2-chlorophenyl)(1-cyclopropyl-1H-1,2,3-triazol-4-yl)methyl-d)amino)-4-((3-chlorophenyl)amino)quinoline-3-carbonitrile]
244	22	–	[2H][C@@](Nc1cc(Cl)c2ncc(C#N)c(NCC(C)(C)C)c2c1)(c1cn(C23CC(C2)C3)nn1)c1ccccc1Cl [Example 86, (S)-6-(((1-(bicyclo[1.1.1]pentan-1-yl)-1H-1,2,3-triazol-4-yl)(2-chlorophenyl)methyl-d)amino)-8-chloro-4-(neopentylamino) quinoline-3-carbonitrile]
> 1000	> 10000	–	[2H]C(Nc1cc(Cl)c2ncc(C#N)c(NC(CCC#N)c3ccccc3)c2c1)(c1cn(C2CC2)nn1)c1ccccc1Cl (stereo not shown) [Example 87, 8-chloro-6-(((2-chlorophenyl) (1-cyclopropyl-1H-1,2,3-triazol-4-yl)methyl-d)amino)-4-((3-cyano-1-phenylpropyl)amino) quinoline-3-carbonitrile]
–	190	> 1000	[2H]C(Nc1cc(Cl)c2ncc(C#N)c(NC(CCC#N)c3ccccc3)c2c1)(c1cn(C2CC2)nn1)c1ccccc1Cl (stereo not shown) [Example 88, 8-chloro-6-(((2-chlorophenyl) (1-cyclopropyl-1H-1,2,3-triazol-4-yl)methyl-d)amino)-4-((3-cyano-1-phenylpropyl)amino) quinoline-3-carbonitrile]

Further lines, the compound ahead of its results:

Structure (SMILES)	EC50 ([1]; Homo sapiens, Monocyte) [nM]	IC50 [2] [nM]	EC50 [1] [nM]
N#CCC[C@@H](Nc1c(C#N)cnc2c(Cl)cc(N[C@H](c3cn(CC#N)nn3)c3ccccc3Cl)cc12)c1ccccc1 [Example 66, 8-chloro-6-(((S)-(2-chlorophenyl)(1-(cyanomethyl)-1H-1,2,3-triazol-4-yl)methyl)amino)-4-(((R)-3-cyano-1-phenylpropyl)amino) quinoline-3-carbonitrile]	96	5	–
N#CCC[C@@H](Nc1c(C#N)cnc2c(Cl)cc(N[C@H](c3cn(C(F)(F)CO)nn3)c3ccccc3Cl)cc12)c1ccccc1 [Example 67, 8-chloro-6-(((S)-(2-chlorophenyl)(1-(1,1-difluoro-2-hydroxyethyl)-1H-1,2,3-triazol-4-yl)methyl)amino)-4-(((R)-3-cyano-1-phenylpropyl)amino) quinoline-3-carbonitrile]	41	2	–
CC(C)(C)CNc1c(C#N)cnc2c(C#N)cc(N[C@@H](c3cccc(NS(C)(=O)=O)c3)c3cn(C4CC4)nn3)cc12 [Example 68, (S)-N-(3-((1-cyclopropyl-1H-1,2,3-triazol-4-yl)((3,8-dicyano-4-(neopentylamino)quinolin-6-yl)amino)methyl)phenyl)methanesulfonamide]	> 1000	3	–
CN(c1cccc([C@H](Nc2cc(C#N)c3ncc(C#N)c(NCC(C)(C)C)c3c2)c2cn(C3CC3)nn2)c1)S(C)(=O)=O [Example 69, (S)-N-(3-((1-cyclopropyl-1H-1,2,3-triazol-4-yl)((3,8-dicyano-4-(neopentylamino)quinolin-6-yl)amino)methyl)phenyl)-N-methylmethanesulfonamide]	124	3	–
CC(C)(C)CNc1c(C#N)cnc2c(Cl)cc(N[C@H](c3cn(C4(C(N)=O)CC4)nn3)c3ccccc3Cl)cc12 [Example 70, (S)-1-(4-(((8-chloro-3-cyano-4-(neopentylamino)quinolin-6-yl)amino) (2-chlorophenyl)methyl)-1H-1,2,3-triazol-1-yl) cyclopropane-1-carboxamide]	124	9	–
N#CCC[C@@H](Nc1c(C#N)cnc2c(Cl)cc(N[C@H](c3cn(CC(N)=O)nn3)c3ccccc3Cl)cc12)c1ccccc1 [Example 71, 2-(4-((S)-((8-chloro-3-cyano-4-(((R)-3-cyano-1-phenylpropyl)amino)quinolin-6-yl)amino) (2-chlorophenyl)methyl)-1H-1,2,3-triazol-1-yl) acetamide]	657	4	–
CC1(n2cc([C@@H](Nc3cc(Cl)c4ncc(C#N)c(N[C@H](CCC#N)c5ccccc5)c4c3)c3ccccc3Cl)nn2)CC1 [Example 72, 8-chloro-6-(((S)-(2-chlorophenyl)(1-(1-methylcyclopropyl)-1H-1,2,3-triazol-4-yl)methyl)amino)-4-(((R)-3-cyano-1-phenylpropyl)amino)quinoline-3-carbonitrile]	66	2	–
N#CCC[C@@H](Nc1c(C#N)cnc2c(Cl)cc(N[C@H](c3cn(C4(C#N)CC4)nn3)c3ccccc3Cl)cc12)c1ccccc1 [Example 73, 8-chloro-6-(((S)-(2-chlorophenyl)(1-(1-cyanocyclopropyl)-1H-1,2,3-triazol-4-yl)methyl)amino)-4-(((R)-3-cyano-1-phenylpropyl)amino) quinoline-3-carbonitrile]	34	2	–
[2H][C@](Nc1cc(Cl)c2ncc(C#N)c(N[C@H](CCC#N)c3ccccc3)c2c1)(c1ccc(Cl)cc1)c1cn(C2CC2)nn1 [Example 74, 8-chloro-6-(((S)-(4-chlorophenyl)(1-cyclopropyl-1H-1,2,3-triazol-4-yl)methyl-d)amino)-4-(((R)-3-cyano-1-phenylpropyl)amino) quinoline-3-carbonitrile]	30	3	–
[2H][C@](Nc1cc(-c2ccnnc2)c2ncc(C#N)c(NCC(C)(C)C)c2c1)(c1ccc(F)cc1)c1cn(C2CC2)nn1 [Example 75, (S)-6-(((1-cyclopropyl-1H-1,2,3-triazol-4-yl)(4-fluorophenyl)methyl-d)amino)-4-(neopentylamino)-8-(pyridazin-4-yl)quinoline-3-carbonitrile]	> 1000	199	–
CC(=O)Nc1cccc([C@H](Nc2cc(C#N)c3ncc(C#N)c(NCC(C)(C)C)c3c2)c2cn(C3CC3)nn2)c1 [Example 76, (S)-N-(3-((1-cyclopropyl-1H-1,2,3-triazol-4-yl)((3,8-dicyano-4-(neopentylamino)quinolin-6-yl)amino)methyl)phenyl)acetamide]	462	2	–
CC(C)(C)CNc1c(C#N)cnc2c(C#N)cc(N[C@@H](c3ccc(Cl)cc3)c3cn(C4CC4)nn3)cc12 [Example 77, (S)-6-(((4-chlorophenyl) (1-cyclopropyl-1H-1,2,3-triazol-4-yl)methyl)amino)-4-(neopentylamino) quinoline-3,8-dicarbonitrile]	108	9	–
